Paper PMC9221509, “Discovery of a Novel Antimicrobial Peptide, Temporin-PKE, from the Skin Secretion of Pelophylax kl. esculentus, and Evaluation of Its Structure-Activity Relationships” (Biomolecules, 2022)
≈ marks a conversion by molar mass, not a printed value. Like-named read-outs stand apart in the source and are kept apart here. Non-standard residues stand in square brackets, D forms with d. Residues, ends and D or L forms follow the SMILES beside them. No end group written: not given here.

What was measured:
MRSA (NCTC 12493) [1] = type: cell-based, methicillin-resistant Staphylococcus aureus; settings: NCTC 12493, 24 h
Procedure: (§1) The antimicrobial activities of peptides were evaluated against the Gram-positive bacteria, S. aureus (ATCC 6538), methicillin-resistant Staphylococcus aureus (MRSA) (NCTC 12493), Enterococcus faecalis (E. faecalis) (NCTC 12697); the Gram-negative bacteria, E. coli (ATCC CRM 8739), Klebsiella pneumoniae (K. pneumoniae) (ATCC 43816), Pseudomonas aeruginosa (P. aeruginosa) (ATCC CRM 9027); and the yeast, Candida albicans (C. albicans) (ATCC CRM 10231). Clinical isolates of MRSA (B042 V2E1 A), E. coli (ATCC BAA-2340), K. pneumoniae (ATCC BAA-1705), and P. aeruginosa (B004 V2S2 B) were also used to determine their antimicrobial activities. The suspension of microorganisms in the logarithmic growth phase with a specific final density (Gram-negative and Gram-positive bacteria: 5 × 10^5 CFU/mL; yeast: 1 × 10^6 CFU/mL) was incubated with different peptide concentrations from 1 µM to 512 µM at 37 °C for 24 h. PBS was used as the negative control, and norfloxacin and amphotericin B were selected as the positive control for bacteria and yeast, respectively. Since the Norfloxacin had weak activities against P. aeruginosa (B004 V2S2 B) and K. pneumoniae (ATCC BAA 1705), gentamicin was used as the positive control for these two bacterial strains. The absorbance of each well was obtained using a microplate reader (EL808, Biolise BioTek, Winooski, VT, USA) set at 550 nm wavelength. The MIC value was the lowest concentration of a peptide that inhibits visible bacterial growth. Once the MIC values were determined, an aliquot from the bacterial culture exposed to the peptide at or above its MIC value was inoculated on a Mueller Hinton agar (MHA) and was incubated at 37 for 18 h. The MBC value was the lowest concentration of a peptide that kills 99.9% of bacteria.
According to the procedures in a previous article, the analysis of the sensitivity of the peptides was determined by measuring MIC values in the presence of different types of salts and 10% fetal bovine serum. MRSA (NCTC 12493) and K. pneumoniae (ATCC 43816) were selected as the subjects of these assays. Various salts at different concentrations, including 150 mM NaCl, 4.5 mM KCl, 6 μM NH4Cl, 1 mM MgCl2, […], […], and 10% serum (Gibco, Auckland, New Zealand), were added to the MHB medium for the examination of the MIC values which were determined as described in Section 2.7.

[2] = system: K. pneumoniae (ATCC 43816) biofilm; type: cell-based, Klebsiella pneumoniae; settings: ATCC 43816, 24 h
Procedure: (§2) The anti-biofilm activities of the peptides against S. aureus (ATCC 6538), MRSA (NCTC 12493), E. faecalis (NCTC 12697), E. coli (ATCC CRM 8739), K. pneumoniae (ATCC 43816), and P. aeruginosa (ATCC CRM 9027), were evaluated. For the MBIC assay, 99 µL of bacterial suspension (5 × 10^5 CFU/mL) was mixed with 1 µL of serial dilutions (from 100 µM to 51,200 µM) of temporin-PKE and its analogues in a 96-well plate, and the plate was incubated in a moist shaking incubator at a speed of 200 rpm at 37 °C for 24 h. For the MBEC assay, 100 µL of bacterial suspension (5 × 10^5 CFU/mL) in each well was seeded in a new 96-well plate, and the plate was put into the same shaking incubator for 24 h incubation to allow biofilm formation on the well. After biofilm formation, the biofilm in the plate was washed with PBS twice. The PBS was aspirated between washes to remove planktonic bacterial cells. The washed biofilm in each well was treated with 100 µL of serial dilutions (from 1 µM to 512 µM) of the test peptides. Then, the plate was incubated in the same shaking incubator for another 24 h. After being washed by PBS twice and fixed with methanol, the biofilm in each well was incubated with 100 µL of 0.1% crystal violet for 30 min, and the stained biofilm was dissolved in 100 µL of glacial acidic acid after drying. The solutions were transferred to a new microplate, and the absorbance of each well was measured using a microplate reader (EL808, Biolise BioTek, Winooski, VT, USA) set to 595 nm wavelength. The MBIC was the minimum concentration of the peptide showing no biofilm formation. The MBEC is the lowest concentration of the peptide capable of eradicating the mature biofilms, which had no biofilm in the well.

E. faecalis (NCTC 12697) = experiment: microbe, parasite or virus in culture; type: cell-based, Enterococcus faecalis; settings: for MBC: NCTC 12697, 18 h; for MIC: NCTC 12697, 24 h
Procedure: as §1

[3] = system: E. coli (ATCC CRM 8739) biofilm; type: cell-based, Escherichia coli; settings: ATCC CRM 8739, 24 h
Procedure: as §2

MRSA (NCTC 12493) [4] = experiment: microbe, parasite or virus in culture; type: cell-based, methicillin-resistant Staphylococcus aureus; settings: for MBC: NCTC 12493, 18 h; for MIC: NCTC 12493, 24 h
Procedure: as §1

MRSA (B042 V2E1 A) = experiment: microbe, parasite or virus in culture; type: cell-based, methicillin-resistant Staphylococcus aureus; settings: B042 V2E1 A; for MBC: 18 h; for MIC: 24 h
Procedure: as §1

[5] = system: MRSA (NCTC 12493) biofilm; type: cell-based, methicillin-resistant Staphylococcus aureus; settings: NCTC 12493, 24 h
Procedure: as §2

| Compound | MIC against MRSA in the presence of 4 µM FeCl3 (MRSA (NCTC 12493) [1]) [µM] | MIC against MRSA in the presence of 6 µM NH4Cl (MRSA (NCTC 12493) [1]) [µM] | MIC against MRSA in the presence of 8 µM ZnCl2 (MRSA (NCTC 12493) [1]) [µM] | MIC against MRSA in the presence of 1 mM MgCl2 (MRSA (NCTC 12493) [1]) [µM] | MIC against MRSA in the presence of 2 mM CaCl2 (MRSA (NCTC 12493) [1]) [µM] | MIC against MRSA in the presence of 4.5 mM KCl (MRSA (NCTC 12493) [1]) [µM] | MIC against MRSA in the presence of 150 mM NaCl (MRSA (NCTC 12493) [1]) [µM] | MIC against MRSA in the presence of 10% FBS (MRSA (NCTC 12493) [1]) [µM] | MIC against MRSA, Negative (MRSA (NCTC 12493) [1]) [µM] | MBIC [2] | MBC (E. faecalis (NCTC 12697)) [µM] | MIC (E. faecalis (NCTC 12697)) [µM] | MBIC [3] [µM] | MBC (MRSA (NCTC 12493) [4]) | MBIC [5] [µM] | MIC (MRSA (NCTC 12493) [4]) [µM] | MBC (MRSA (B042 V2E1 A)) [µM] | MIC (MRSA (B042 V2E1 A)) [µM] | other results |
| --- | --- | --- | --- | --- | --- | --- | --- | --- | --- | --- | --- | --- | --- | --- | --- | --- | --- | --- | --- |
| FLPLIIGALSSLLPKIF-NH2 [Temporin-PKE] | 8 | 8 | 32 | 8 | 8 | 8 | 8 | 16 | 2 | >512 µM | 8 | 8 | >512 | 2/2 μM | 4 | – | – | – | MIC (MRSA (NCTC 12493) [4]; read-out: MIC): 2 µM; MBC (MRSA (B042 V2E1 A); read-out: MBC): 8 µM; MIC (MRSA (B042 V2E1 A); read-out: MIC): 4 µM |
| CC[C@@H](C)[C@@H](NC(=O)[C@H](CCCCN)NC(=O)[C@@H]1CCCN1C(=O)[C@H](CC(C)C)NC(=O)[C@H](CC(C)C)NC(=O)[C@H](CO)NC(=O)[C@H](CO)NC(=O)[C@H](CC(C)C)NC(=O)[C@H](C)NC(=O)CNC(=O)[C@H](NC(=O)[C@H](NC(=O)[C@H](CC(C)C)NC(=O)[C@@H]1CCCN1C(=O)[C@H](CC(C)C)NC(=O)[C@@H](N)Cc1ccccc1)[C@H](C)CC)[C@H](C)CC)C(=O)N[C@@H](Cc1ccccc1)C(N)=O [Temporin-PKE-3i] (H-FLPL[dI][dI]GALSSLLPK[dI]F-NH2) | 128 | 256 | 512 | 256 | 256 | 512 | 512 | 512 | 64 (≈ 118 µg/mL) | >512 µM | 128 (≈ 236 µg/mL) | 128 (≈ 236 µg/mL) | >512 | 64 µM (≈ 118 µg/mL) | 64 | 64 (≈ 118 µg/mL) | 64 (≈ 118 µg/mL) | 64 (≈ 118 µg/mL) | – |
| FLPKIIGKLSSKLPKIF-NH2 [Temporin-PKE-4K] | 32 | 32 | 128 | 32 | 64 | 32 | 128 | 128 | 32 | 256 µM | 32 | 32 | 128 | 32 µM | 32 | 32 | 16 | 16 | – |
| FLPLIIGKLSSLLPKIF-NH2 [Temporin-PKE-2K] | 2 | 4 | 16 | 4 | 4 | 4 | 8 | 8 | 2 | 128 µM | 2 | 2 | 64 | 2 µM | 2 | 2 | 2 | 2 | – |
| FLPLIIGALSSKLPKIF-NH2 [Temporin-PKE-K12] | 8 | 8 | 32 | 16 | 16 | 32 | 32 | 32 | 4 | 512/>512 μM | 8 | 8 | 64 | 4 µM | 4 | 4 | 4 | 4 | – |
| FLPKIIGKLSSLLPKIF-NH2 [Temporin-PKE-3K] | 2 | 4 | 16 | 4 | 4 | 4 | 8 | 4 | 2 | 32 µM | 2 | 2 | 16 | 2/2 μM | 2 | – | 2 | 2 | MIC (MRSA (NCTC 12493) [4]; read-out: MIC): 2 µM |
| CC[C@@H](C)[C@@H](NC(=O)[C@H](CCCCN)NC(=O)[C@@H]1CCCN1C(=O)[C@H](CC(C)C)NC(=O)[C@H](CC(C)C)NC(=O)[C@H](CO)NC(=O)[C@H](CO)NC(=O)[C@H](CC(C)C)NC(=O)[C@H](C)NC(=O)CNC(=O)[C@@H](NC(=O)[C@@H](NC(=O)[C@H](CC(C)C)NC(=O)[C@@H]1CCCN1C(=O)[C@H](CC(C)C)NC(=O)[C@@H](N)Cc1ccccc1)[C@@H](C)CC)[C@@H](C)CC)C(=O)N[C@@H](Cc1ccccc1)C(N)=O [Temporin-PKE-i] (H-FLPLIIGALSSLLPK[dI]F-NH2) | 2 | – | 16 | – | 4 | – | 4 | 8 | – | >512 µM | 4 (≈ 7.37 µg/mL) | 4 (≈ 7.37 µg/mL) | >512 | 4 µM (≈ 7.37 µg/mL) | 2 | 4 (≈ 7.37 µg/mL) | 4 (≈ 7.37 µg/mL) | 4 (≈ 7.37 µg/mL) | – |
